Assay results from PMC10533049, “Anti-Inflammatory Halogenated Monoterpenes from the Red Alga Portieria hornemannii” (Marine Drugs, 2023).
Like-named read-outs stand apart in the source and are kept apart here.

Legend:
[1] = Viability of dendritic cells (CCK-8 assay); format: cell-based; details: for viability at 100 μg/mL: DCs, CCK-8, mean ± S.D., triplicate, read-out: Cell Viability (%) (DCs)
Method: (§1) In this study, the viability of D.C. cells was evaluated at a concentration of 100 μg/mL using a cell-counting-kit assay (CCK-8) obtained from Dojindo Molecular Technologies, Inc. (Kumamoto, Japan), which measured absorbance at a wavelength of 450 nm, following the methodology outlined by Chung et al.. The expression of the pro-inflammatory cytokine, TNF-α, in the culture supernatant was screened using the dendritic cells ELISA kit, as described in a previous study.

[2] = system: TNF-α; assay: TNF-α expression in LPS-stimulated dendritic cells (ELISA); format: cell-based; details: for IC50: Dendritic cell; for Anti-inflammatory activity (result in words): LPS-stimulated dendritic cells, pro-inflammatory cytokine / TNF-α production
Method: as §1

[3] = system: cell lines derived from the brain, kidney, and colon; design: method as in PMID 1501227, PMID 9443608; details: cited from earlier work
[4] = read-out: Anti-Inflammatory Activity (IC50) TNF-α Expression (LPS/DCs)

SMILES | viability at 100 μg/mL [1] [%] | IC50 [2, 4] [µM] | Anti-inflammatory activity (result in words) [2] | Cytotoxicity in NCI human tumor cell line screen (result in words) [3] | IC50 ([1]; dendritic cells (DCs), positive control, read-out: Cytotoxicity against DCs, IC50) [µM] | IC50 ([2]; LPS-stimulated DCs, unit inferred, read-out: IC50, reduction of TNF-α production in LPS-stimulated dendritic cells) [µM]
C=C[C@@](C)(Cl)[C@@H](Cl)/C=C/C(=C/Cl)C(Cl)Cl [Compound 4] | 51.1 ± 2.2 | 6.2 ± 1.1 | significantly reduce the TNF-α |  |  | 
C=C(Cl)[C@](Cl)(CBr)CC[C@@H](Br)C(C)(C)Cl [halomon] |  |  |  | significant differential cytotoxicity |  | 
O=c1c(O)c(-c2ccc(O)c(O)c2)oc2cc(O)cc(O)c12 [quercetin, reference compound] |  |  |  |  | 78.8 ± 7.3 | 23.1 ± 5.2
C=C[C@@](C)(Cl)[C@@H](Br)/C=C/[C@](C)(Cl)C(Cl)Cl [Compound 1, (3R,4S,5E,7S)-4-Bromo-3,7,8,8-tetrachloro-3,7-dimethyl-octa-1,5-diene] | 47 ± 2.1 | 2.5 ± 0.4 | significantly reduce the TNF-α |  |  | 
C=C[C@](C)(Cl)[C@H](Cl)/C=C/C(=C/Cl)C(Br)Br [Compound 3, (3S,4R,5E,7Z)-3,4,8-trichloro-7-dibromomethyl-3-methyl-octa-1,5,7-triene] | 80.2 ± 8.3 | > 100 | did not show any activity |  |  | 
C=C[C@@](C)(Cl)[C@@H](Cl)/C=C/C(C)(Cl)C(Cl)Cl (relative stereo) [Compound 2, (3R*,4S*,5E)-3,4,7,8,8-Pentachloro-3,7-dimethyl-octa-1,5-diene] | 88.8 ± 8.1 | > 100 |  |  |  | 
C=C[C@@](C)(Cl)[C@H](Cl)/C=C/C(=C/Cl)C(Cl)Cl [Compound 5] | 49.1 ± 2.7 | 10.6 ± 1.3 | significantly reduce the TNF-α |  |  | 
